Results on 28 compounds are retold here after patent US10988477B2 (Merck Patent GmbH, priority 2018, dated 2021).

The target in experiment [1] is intracellular GCN2 (phosphorylation of the GCN2 substrate eIF2α) (Homo sapiens, UniProt Q9P2K8). The experiment can be described thus: GCN2 cellular inhibition assay (AlphaScreen SureFire P-eIF2α Ser51, borrelidin-treated U2OS cells). Particulars: compounds of Formula II; biomarker assay, phosphorylated eIF2α Ser51 in borrelidin-treated U2OS cells. The class given is cell-based. The essentials: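 Compound effect on GCN2 is gauged by eIF2α Ser51 phosphorylation in borrelidin-challenged U2OS cells (10 μM, 1 h). Top compound level is 40 μM final.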

A further experiment addresses GCN2 kinase (Homo sapiens, UniProt Q9P2K8). The experiment can be described thus: GCN2 enzyme inhibition assay (Transcreener ADP2 fluorescence polarization). Particulars: compounds of Formula II; 280 μM ATP, 4 nM GCN2 kinase. The class given is biochemical. A digest of the protocol:
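Kinase activity is followed as ADP formation, measured by fluorescence polarization, using 4 nM enzyme with 280 μM ATP and 200 μM (RS)7 peptide at pH 7.5 and 25 °C for 1 h. Values come from a non-linear tight-binding fit.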

Sequence of intracellular GCN2 (phosphorylation of the GCN2 substrate eIF2α) (Q9P2K8 whole entry): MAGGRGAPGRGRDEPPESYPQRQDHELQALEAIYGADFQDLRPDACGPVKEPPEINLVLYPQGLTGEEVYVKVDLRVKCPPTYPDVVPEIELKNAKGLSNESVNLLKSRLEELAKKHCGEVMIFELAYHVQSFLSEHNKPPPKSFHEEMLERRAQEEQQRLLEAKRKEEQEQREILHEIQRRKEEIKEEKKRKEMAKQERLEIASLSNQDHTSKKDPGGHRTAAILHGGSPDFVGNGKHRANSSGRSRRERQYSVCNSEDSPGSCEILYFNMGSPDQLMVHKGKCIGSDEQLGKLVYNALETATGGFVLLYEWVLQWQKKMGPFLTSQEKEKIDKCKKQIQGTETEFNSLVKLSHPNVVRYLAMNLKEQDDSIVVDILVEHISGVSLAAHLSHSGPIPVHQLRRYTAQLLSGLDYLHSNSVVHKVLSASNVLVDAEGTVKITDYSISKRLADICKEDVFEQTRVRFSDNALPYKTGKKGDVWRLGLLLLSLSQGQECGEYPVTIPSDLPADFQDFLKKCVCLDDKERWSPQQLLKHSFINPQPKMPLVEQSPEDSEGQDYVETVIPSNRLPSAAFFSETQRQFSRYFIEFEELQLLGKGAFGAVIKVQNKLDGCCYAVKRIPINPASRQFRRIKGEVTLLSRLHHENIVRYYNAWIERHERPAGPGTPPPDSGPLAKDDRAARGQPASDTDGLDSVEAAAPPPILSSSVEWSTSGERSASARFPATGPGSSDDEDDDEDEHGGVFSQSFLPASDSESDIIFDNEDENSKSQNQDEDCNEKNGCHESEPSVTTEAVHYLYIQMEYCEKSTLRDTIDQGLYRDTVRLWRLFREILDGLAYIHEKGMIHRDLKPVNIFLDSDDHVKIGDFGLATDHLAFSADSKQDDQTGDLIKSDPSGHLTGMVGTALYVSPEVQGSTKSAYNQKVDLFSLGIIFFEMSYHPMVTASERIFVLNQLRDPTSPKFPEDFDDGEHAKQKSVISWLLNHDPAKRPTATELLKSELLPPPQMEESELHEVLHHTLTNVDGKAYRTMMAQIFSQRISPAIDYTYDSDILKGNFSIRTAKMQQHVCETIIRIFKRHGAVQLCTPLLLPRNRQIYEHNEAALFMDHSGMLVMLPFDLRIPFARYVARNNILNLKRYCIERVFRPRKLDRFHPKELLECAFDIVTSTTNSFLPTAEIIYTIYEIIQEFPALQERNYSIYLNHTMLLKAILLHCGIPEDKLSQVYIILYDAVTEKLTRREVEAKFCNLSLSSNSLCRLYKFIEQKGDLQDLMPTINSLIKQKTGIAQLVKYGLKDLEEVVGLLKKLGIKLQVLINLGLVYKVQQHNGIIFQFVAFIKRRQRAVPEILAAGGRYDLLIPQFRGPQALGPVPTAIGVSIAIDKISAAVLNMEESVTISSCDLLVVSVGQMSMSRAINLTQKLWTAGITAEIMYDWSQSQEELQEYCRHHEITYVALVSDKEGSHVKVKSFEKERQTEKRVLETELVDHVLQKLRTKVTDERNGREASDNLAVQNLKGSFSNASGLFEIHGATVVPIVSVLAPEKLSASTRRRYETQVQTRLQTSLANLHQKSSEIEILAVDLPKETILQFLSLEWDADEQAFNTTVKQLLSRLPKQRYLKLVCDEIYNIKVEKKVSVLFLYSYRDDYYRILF
Sequence of GCN2 kinase (Q9P2K8 whole entry): as above

As usually defined, the IC50 is the concentration needed to halve the response being measured. As a reminder, the Ki is a measure of affinity in units of concentration, obtained from inhibition or displacement. Consider `CS(=O)(=O)N1CCCC(c2cc(-c3cnc4ccc(C(F)F)nn34)ncn2)C1` (centres unmarked) [II-21, 6-(Difluoromethyl)-3-(6-(1-(methylsulfonyl)piperidin-3-yl)pyrimidin-4-yl)imidazo[1,2-b]pyridazine], for which the IC50 in experiment [1] is greater than 5000 nM. Besides, at GCN2 kinase, the inhibition constant (Ki) was 10 to 1000 nM.
In the case of `CS(=O)(=O)N1CCCN(c2cc(-c3cnc4ccc(C(F)F)nn34)ncn2)CC1` [II-22, 6-(Difluoromethyl)-3-(6-(4-(methylsulfonyl)-1,4-diazepan-1-yl)pyrimidin-4-yl)imidazo[1,2-b]pyridazine], the 50% inhibitory concentration (IC50) in experiment [1] is greater than 5000 nM. Moreover, the inhibition constant Ki at GCN2 kinase was in the range of 10 to 1000 nM.
For `NS(=O)(=O)N1CCCN(c2cc(-c3cnc4ccc(C(F)F)nn34)ncn2)CC1` [II-24, 4-(6-(6-(Difluoromethyl)imidazo[1,2-b]pyridazin-3-yl)pyrimidin-4-yl)-1,4-diazepane-1-sulfonamide], the IC50 in experiment [1] was greater than 5000 nM. The same compound displayed an inhibition constant Ki at GCN2 kinase of 10 to 1000 nM.
`CS(=O)(=O)NC[C@@H]1CN(c2cc(-c3cnc4ccc(C(F)F)nn34)ncn2)CC(=O)N1` [II-25, (S)—N-((4-(6-(6-(Difluoromethyl)imidazo[1,2-b]pyridazin-3-yl)pyrimidin-4-yl)-6-oxopiperazin-2-yl)methyl)methanesulfonamide] returned an IC50 in experiment [1] greater than 5000 nM. Moreover, the Ki on GCN2 kinase lay within 10 to 1000 nM.
As to `CN=S(C)(=O)CC1CCCN(c2cc(-c3cnc4ccc(C(F)F)nn34)ncn2)C1` (centres unmarked) [II-26, [1-[6-[6-(Difluoromethyl)imidazo[1,2-b]pyridazin-3-yl]pyrimidin-4-yl]-3-piperidyl]methyl-methyl-methylimino-oxo-sulfane], in experiment [1], the IC50 was greater than 5000 nM. At GCN2 kinase, this compound registered an inhibition constant Ki of 10 to 1000 nM.
The like results for `Clc1ccc2ncc(-c3ccnc(-c4ccccc4)c3)n2n1` [II-27, 6-Chloro-3-(2-phenylpyridin-4-yl)imidazo[1,2-b]pyridazine] were, in that order, greater than 5000 nM and 10 to 1000 nM.
Regarding `FC(F)c1ccc2ncc(-c3cc(N4Cc5ccncc5C4)ncn3)n2n1` [II-28, 3-(6-(1H-Pyrrolo[3,4-c]pyridin-2(3H)-yl)pyrimidin-4-yl)-6-(difluoromethyl)imidazo[1,2-b]pyridazine], the concentration for half-maximal inhibition (IC50) in experiment [1] is less than 500 nM. Besides, the Ki on GCN2 kinase was in the range of 10 to 1000 nM.
In experiment [1], `FC(F)c1ccc2ncc(-c3cc(N4CCOC(Cn5cnnc5)C4)ncn3)n2n1` (centres unmarked) [II-29, 2-((4H-1,2,4-Triazol-4-yl)methyl)-4-(6-(6-(difluoromethyl)imidazo[1,2-b]pyridazin-3-yl)pyrimidin-4-yl)morpholine] returned a 50% inhibitory concentration (IC50) greater than 5000 nM. At GCN2 kinase, this compound registered an inhibition constant (Ki) of 10 to 1000 nM.
With `N#CCC(=O)N1CCCC(c2cc(-c3cnc4ccc(C(F)F)nn34)ncn2)C1` (centres unmarked) [II-30, 3-(3-(6-(6-(Difluoromethyl)imidazo[1,2-b]pyridazin-3-yl)pyrimidin-4-yl)piperidin-1-yl)-3-oxopropanenitrile], the IC50 in experiment [1] lay in the range of 500 to 5000 nM. In addition, on GCN2 kinase, the Ki lay in the range of 10 to 1000 nM.
In the same order, the values of `CC1CN(c2cc(-c3cnc4ccc(C(F)F)nn34)ncn2)CC(CNS(C)(=O)=O)O1` (centres unmarked) [II-31, N-((4-(6-(6-(Difluoromethyl)imidazo[1,2-b]pyridazin-3-yl)pyrimidin-4-yl)-6-methylmorpholin-2-yl)methyl)methanesulfonamide] are less than 500 nM and less than 10 nM.
On to `CC1CN(c2cc(-c3cnc4ccc(C(F)F)nn34)ncn2)CC(CNS(C)(=O)=O)O1` (centres unmarked) [II-32, N-((4-(6-(6-(Difluoromethyl)imidazo[1,2-b]pyridazin-3-yl)pyrimidin-4-yl)-6-methylmorpholin-2-yl)methyl)methanesulfonamide], for which, in experiment [1], the half-maximal inhibitory concentration (IC50) was less than 500 nM. Further, on GCN2 kinase, the Ki was less than 10 nM.
`CC1CN(c2cc(-c3cnc4ccc(C(F)F)nn34)ncn2)CC(CNS(C)(=O)=O)O1` (centres unmarked) [II-33, N-((4-(6-(6-(Difluoromethyl)imidazo[1,2-b]pyridazin-3-yl)pyrimidin-4-yl)-6-methylmorpholin-2-yl)methyl)methanesulfonamide]: the 50% inhibitory concentration (IC50) in experiment [1] is less than 500 nM. For the same compound, the inhibition constant Ki at GCN2 kinase was less than 10 nM.
As to `CS(=O)(=O)NC[C@@H]1CN(c2cc(-c3cnc4ccc(C(F)F)nn34)ncn2)CCO1` [II-34, (S)—N-((4-(6-(6-(Difluoromethyl)imidazo[1,2-b]pyridazin-3-yl)pyrimidin-4-yl)morpholin-2-yl)methyl)methanesulfonamide], the IC50 in experiment [1] is less than 500 nM. For the same compound, the Ki on GCN2 kinase is less than 10 nM.
Turning to `CC1CN(c2cc(-c3cnc4ccc(C(F)F)nn34)ncn2)CC(CNS(C)(=O)=O)C1(F)F` (centres unmarked) [II-35, N-((1-(6-(6-(Difluoromethyl)imidazo[1,2-b]pyridazin-3-yl)pyrimidin-4-yl)-4,4-difluoro-5-methylpiperidin-3-yl)methyl)methanesulfonamide], in experiment [1], the IC50 lay within 500 to 5000 nM. The compound further showed an inhibition constant Ki on GCN2 kinase of 10 to 1000 nM.
Take `C[C@H]1CN(c2cc(-c3cnc4ccc(C(F)F)nn34)ncn2)C[C@@H](CNS(C)(=O)=O)C1(F)F` [II-36, N-[[(3S,5S)-1-[6-[6-(Difluoromethyl)imidazo[1,2-b]pyridazin-3-yl]pyrimidin-4-yl]-4,4-difluoro-5-methyl-3-piperidyl]methyl]methanesulfonamide]: the IC50 in experiment [1] was less than 500 nM. This compound showed a Ki at GCN2 kinase of less than 10 nM.
The compound `CS(=O)(=O)N1CCN2CCN(c3cc(-c4cnc5ccc(C(F)F)nn45)ccn3)CC2C1` (centres unmarked) [II-37, 2-(4-(6-(Difluoromethyl)imidazo[1,2-b]pyridazin-3-yl)pyridin-2-yl)-8-(methylsulfonyl)octahydro-1H-pyrazino[1,2-a]pyrazine] displayed an IC50 in experiment [1] of 500 to 5000 nM. At GCN2 kinase, the inhibitory constant (Ki) lay in the range of 10 to 1000 nM.
In turn, `FC(F)c1ccc2ncc(-c3ccnc(N4CCN5CCNCC5C4)c3)n2n1` (centres unmarked) [II-38, 2-(4-(6-(Difluoromethyl)imidazo[1,2-b]pyridazin-3-yl)pyridin-2-yl)octahydro-1H-pyrazino[1,2-a]pyrazine] returned an IC50 in experiment [1] greater than 5000 nM. On GCN2 kinase, this compound showed an inhibition constant Ki of 10 to 1000 nM.
In the same order, the values of `CS(=O)(=O)NCC1CC(O)CN(c2cc(-c3cnc4ccc(C(F)F)nn34)ccn2)C1` (centres unmarked) [II-39, N-((1-(4-(6-(Difluoromethyl)imidazo[1,2-b]pyridazin-3-yl)pyridin-2-yl)-5-hydroxypiperidin-3-yl)methyl)methanesulfonamide] are 500 to 5000 nM and 10 to 1000 nM.
The like results for `CS(=O)(=O)NCC1CC(O)CN(c2cc(-c3cnc4ccc(C(F)F)nn34)ccn2)C1` (centres unmarked) [II-40, N-((1-(4-(6-(Difluoromethyl)imidazo[1,2-b]pyridazin-3-yl)pyridin-2-yl)-5-hydroxypiperidin-3-yl)methyl)methanesulfonamide] were, in that order, less than 500 nM and less than 10 nM.
In experiment [1], `Cn1cc(C(=O)N2CCCC(c3cc(-c4cnc5ccc(C(F)F)nn45)ncn3)C2)cn1` (centres unmarked) [II-41, (3-(6-(6-(Difluoromethyl)imidazo[1,2-b]pyridazin-3-yl)pyrimidin-4-yl)piperidin-1-yl)(1-methyl-1H-pyrazol-4-yl)methanone] showed an IC50 of 500 to 5000 nM. Besides, the inhibitory constant (Ki) on GCN2 kinase is 10 to 1000 nM.
For `CS(=O)(=O)N1CCC2(CCN2c2cncc(-c3cnc4ccc(C(F)F)nn34)c2)CC1` [II-42, 6-(Difluoromethyl)-3-(5-(7-(methylsulfonyl)-1,7-diazaspiro[3.5]nonan-1-yl)pyridin-3-yl)imidazo[1,2-b]pyridazine], the half-maximal inhibitory concentration (IC50) in experiment [1] is greater than 5000 nM. The compound further gave a Ki on GCN2 kinase of 10 to 1000 nM.
The like results for `Cc1ncc(-c2cnc3ccc(C(F)F)nn23)cc1N1CCC12CCN(S(C)(=O)=O)CC2` [II-44, 6-(Difluoromethyl)-3-(6-methyl-5-(7-(methylsulfonyl)-1,7-diazaspiro[3.5]nonan-1-yl)pyridin-3-yl)imidazo[1,2-b]pyridazine] were, in that order, 500 to 5000 nM and 10 to 1000 nM.
`CC1CN(c2cc(-c3cnc4ccc(C(F)F)nn34)ncn2)CC(CNS(C)(=O)=O)C1(F)F` (centres unmarked) [II-45, N-((1-(6-(6-(Difluoromethyl)imidazo[1,2-b]pyridazin-3-yl)pyrimidin-4-yl)-4,4-difluoro-5-methylpiperidin-3-yl)methyl)methanesulfonamide] displayed an IC50 in experiment [1] of less than 500 nM. Further, at GCN2 kinase, the Ki is less than 10 nM.
For the compound `O=C1NCC2CN(c3cc(-c4cnc5ccc(C(F)F)nn45)ncn3)CCN12` (centres unmarked) [II-46, 7-(6-(6-(Difluoromethyl)imidazo[1,2-b]pyridazin-3-yl)pyrimidin-4-yl)hexahydroimidazo[1,5-a]pyrazin-3(2H)-one], the IC50 in experiment [1] was greater than 5000 nM. Also, the inhibition constant Ki at GCN2 kinase was in the range of 10 to 1000 nM.
In experiment [1], `O=C1OC[C@@H]2CN(c3cc(-c4cnc5ccc(C(F)F)nn45)ncn3)CCN12` [II-47, (S)-7-(6-(6-(Difluoromethyl)imidazo[1,2-b]pyridazin-3-yl)pyrimidin-4-yl)hexahydro-3H-oxazolo[3,4-a]pyrazin-3-one] showed a half-maximal inhibitory concentration (IC50) of 500 to 5000 nM. The same compound gave a Ki on GCN2 kinase of 10 to 1000 nM.
In experiment [1], `CS(=O)(=O)CCN1CCCC(c2cc(-c3cnc4ccc(C(F)F)nn34)ncn2)C1` (centres unmarked) [II-48, 6-(Difluoromethyl)-3-(6-(1-(2-(methylsulfonyl)ethyl)piperidin-3-yl)pyrimidin-4-yl)imidazo[1,2-b]pyridazine] yielded an IC50 greater than 5000 nM. At GCN2 kinase, this compound registered an inhibition constant Ki of 10 to 1000 nM.
The like results for `Cc1ncc(-c2cnc3ccc(C(F)F)nn23)cc1N1CCCC(CNS(C)(=O)=O)C1` (centres unmarked) [II-49, N-((1-(5-(6-(Difluoromethyl)imidazo[1,2-b]pyridazin-3-yl)-2-methylpyridin-3-yl)piperidin-3-yl)methyl)methanesulfonamide] were, in that order, 500 to 5000 nM and 10 to 1000 nM.
For `NC(=O)C1CN(c2cc(-c3cnc4ccc(C(F)F)nn34)ncn2)CCO1` (centres unmarked) [II-50, 4-(6-(6-(Difluoromethyl)imidazo[1,2-b]pyridazin-3-yl)pyrimidin-4-yl)morpholine-2-carboxamide], the IC50 in experiment [1] is 500 to 5000 nM. In addition, the Ki at GCN2 kinase is 10 to 1000 nM.
